Laboratory results from BindingDB's records for doi:10.7270/Q2W37TVH (Novartis Pharma, 1997).
pIC50: −log10 of the molar value.

biological target: Dihydroorotate dehydrogenase (quinone), mitochondrial (Homo sapiens, UniProt Q02127); assay: Spectrophotometric Assay
Source text: Spectrophotometric assay using crude human, recombinant DHODHase.

Sequence of Dihydroorotate dehydrogenase (quinone), mitochondrial (Q02127 whole entry): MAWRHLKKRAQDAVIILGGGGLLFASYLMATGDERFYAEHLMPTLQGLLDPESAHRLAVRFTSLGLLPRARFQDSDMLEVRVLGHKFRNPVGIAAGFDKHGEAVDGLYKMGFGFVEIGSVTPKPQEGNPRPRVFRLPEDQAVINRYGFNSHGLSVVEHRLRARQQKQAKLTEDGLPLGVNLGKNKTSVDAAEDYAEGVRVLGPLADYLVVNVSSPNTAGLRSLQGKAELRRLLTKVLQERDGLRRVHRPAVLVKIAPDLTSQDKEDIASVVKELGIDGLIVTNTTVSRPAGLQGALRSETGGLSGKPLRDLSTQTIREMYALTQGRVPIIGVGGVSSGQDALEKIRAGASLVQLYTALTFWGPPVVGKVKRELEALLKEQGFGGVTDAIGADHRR

pIC50	SMILES
4.82	CC(=O)C(C#N)C(=O)Nc1ccccc1 (stereo not drawn) [Alpha-cyano-beta-hydroxy enamide, 2]
< 4.30	N#C/C(C(=O)Nc1ccc(C(F)(F)F)cc1)=C1/CCCCO1 [Tetrahydropyranyl derivative, 8 (E)]
< 4.30	N#C/C(C(=O)Nc1ccc(C(F)(F)F)cc1)=C1/CCOC1 [Tetrahydrofuranyl derivative, 7 (E)]
< 4.30	N#C/C(C(=O)Nc1ccc(C(F)(F)F)cc1)=C1\CCCCO1 [Tetrahydropyranyl derivative, 8 (Z)]
4.79	CC(C)(C)C(=O)C(C#N)C(=O)Nc1ccc(C(F)(F)F)cc1 (stereo not drawn) [Alpha-cyano-beta-hydroxy enamide, 4]
5.89	CC(=O)C(C#N)C(=O)Nc1ccc(C#N)cc1 (stereo not drawn) [Alpha-cyano-beta-hydroxy enamide, 3]
< 4.30	N#C/C(C(=O)Nc1ccc(C(F)(F)F)cc1)=C1\CCCO1 [Tetrahydrofuranyl derivative, 7 (Z)]
6.89	CC(C)(C)CCC(=O)C(C#N)C(=O)Nc1ccc(C(F)(F)F)cc1 (stereo not drawn) [Alpha-cyano-beta-hydroxy enamide, 5]

SMILES	pIC50
N#Cc1ccc(NC(=O)C(C#N)C(=O)C2CC2)cc1 (stereo not drawn) [Alpha-cyano-beta-hydroxy enamide, 6]	6.22
